# Experimental data published in patent publication US8030321B2, “Benzofuro- and benzothienopyrimidine modulators of the histamine H4 receptor” (Janssen Pharmaceutica, NV, priority 2006, dated 2011).
# Where a name gives a salt, the structure may show the parent alone.
# Target: T1, human histamine H4 receptor (Homo sapiens, UniProt Q9H3N8)
# T1 construct: expressed in transfected cells; host or cells: SK-N-MC cells or COS7 cells, transiently transfected; cell membranes used
# Experiment: Binding Assay on Recombinant Human Histamine H4 Receptor
# Conditions: not given
# Procedure, shortened: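 Membranes from SK-N-MC or COS7 cells transiently transfected with human H4 receptor were incubated with ³H-histamine (5-70 nM); nonspecific binding defined with 10,000 nM histamine. Bound radioactivity collected by GF/C filtration and scintillation counting; test compounds assessed by displacement of ³H-ligand binding across concentrations.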
row,Compound,Ki [nM]
1,"CN1C[C@@H]2C[C@H]1CN2c1nc(N)nc2c1oc1ccc(Cl)cc12 [Example 106, (S,S)-8-Chloro-4-(5-methyl-2,5-diaza-bicyclo[2.2.1]hept-2-yl)-benzo[4,5]furo[3,2-d]pyrimidin-2-ylamine trifluoroacetic acid salt]",11

# Same assay, conditions: competition binding with 3H-histamine (5 nM), membranes of SK-N-MC or COS7 cells expressing human H4 receptor; Cheng-Prusoff, KD 5 nM; average of results obtained; read-out: Ki
row,Compound,Ki [nM]
1,"CN[C@@H]1CCN(c2nc(N)nc3c2oc2cccc(OC)c23)C1 [Example 100, (R)-9-Methoxy-4-(3-methylamino-pyrrolidin-1-yl)-benzo[4,5]furo[3,2-d]pyrimidin-2-ylamine trifluoroacetic acid salt]",20
2,"CN1CCN(c2nc(N)nc3c2oc2ccc(Cl)c(Cl)c23)CC1 [Example 101, 8,9-Dichloro-4-(4-methyl-piperazin-1-yl)-benzo[4,5]furo[3,2-d]pyrimidin-2-ylamine trifluoroacetic acid salt]",7.8
3,"Nc1nc(N2CCNCC2)c2oc3ccc(Cl)c(Cl)c3c2n1 [Example 104, 8,9-Dichloro-4-piperazin-1-yl-benzo[4,5]furo[3,2-d]pyrimidin-2-ylamine trifluoroacetic acid salt]",61
4,"COc1ccc2oc3c(N4C[C@@H]5C[C@H]4CN5)nc(N)nc3c2c1 [Example 113, (S,S)-4-(2,5-Diaza-bicyclo[2.2.1]hept-2-yl)-8-methoxy-benzo[4,5]furo[3,2-2]pyrimidin-2-ylamine trifluoroacetic acid salt]",420
5,"CN1CCN(c2nc(NCCO)nc3c2oc2ccccc23)CC1 [Example 116, 2-[4-(4-Methyl-piperazin-1-yl)-benzo[4,5]furo[3,2-d]pyrimidin-2-ylamino]-ethanol]",68
6,"COc1ccc2oc3c(N4CCN(C)CC4)nc(NCCO)nc3c2c1 [Example 118, 2-[8-Methoxy-4-(4-methyl-piperazin-1-yl)-benzo[4,5]furo[3,2-d]pyrimidin-2-ylamino]-ethanol]",200
7,"CC(C)CNc1nc(N2CCN(C)CC2)c2oc3ccc(Cl)cc3c2n1 [Example 120, [8-Chloro-4-(4-methyl-piperazin-1-yl)-benzo[4,5]furo[3,2-d]pyrimidin-2-yl]-isobutyl-amine]",3330
8,"CSCCNc1nc(N2CCN(C)CC2)c2oc3ccc(Cl)cc3c2n1 [Example 123, [8-Chloro-4-(4-methyl-piperazin-1-yl)-benzo[4,5]furo[3,2-d]pyrimidin-2-yl]-(2-methylsulfanyl-ethyl)-amine]",520
9,"OCCNc1nc(N2C[C@@H]3C[C@H]2CN3)c2oc3ccc(Cl)cc3c2n1 [Example 125, (S,S)-2-[8-Chloro-4-(2,5-diaza-bicyclo[2.2.1]hept-2-yl)-benzo[4,5]furo[3,2-d]pyrimidin-2-ylamino]-ethanol]",580
10,"CN1CCCN(c2nc(NCCO)nc3c2oc2ccc(Cl)cc23)CC1 [Example 127, 2-[8-Chloro-4-(4-methyl-[1,4]diazepan-1-yl)-benzo[4,5]furo[3,2-d]pyrimidin-2-ylamino]-ethanol]",260
11,"CN1CCN(c2nc(N)nc3c2oc2cccc(F)c23)CC1 [Example 135, 9-Fluoro-4-(4-methyl-piperazin-1-yl)-benzo[4,5]furo[3,2-d]pyrimidin-2-ylamine trifluoroacetic acid salt]",21
12,"CN[C@@H]1CCN(c2nc(N)nc3c2oc2cccc(F)c23)C1 [Example 136, (R)-9-Fluoro-4-(3-methylamino-pyrrolidin-1-yl)-benzo[4,5]furo[3,2-d]pyrimidin-2-ylamine trifluoroacetic acid salt]",10
13,"Nc1nc(N2CCNCC2)c2oc3cccc(F)c3c2n1 [Example 137, 9-Fluoro-4-piperazin-1-yl-benzo[4,5]furo[3,2-d]pyrimidin-2-ylamine trifluoroacetic acid salt]",150
14,"CN1CCN(c2nc(N)nc3c2oc2ccc(C(F)(F)F)cc23)CC1 [Example 139, 4-(4-Methyl-piperazin-1-yl)-8-trifluoromethyl-benzo[4,5]furo[3,2-d]pyrimidin-2-ylamine trifluoroacetic acid salt]",0.8

# The remaining lines, values ahead:
row,Ki [nM],Compound
1,12,"CN[C@@H]1CCN(c2nc(N)nc3c2oc2ccc(OC)cc23)C1 [Example 102, (R)-8-Methoxy-4-(3-methylamino-pyrrolidin-1-yl)-benzo[4,5]furo[3,2-d]pyrimidin-2-ylamine trifluoroacetic acid salt]"
2,3.4,"NCC1CN(c2nc(N)nc3c2oc2ccc(Cl)cc23)C1 [Example 103, 4-(3-Aminomethyl-azetidin-1-yl)-8-chloro-benzo[4,5]furo[3,2-d]pyrimidin-2-ylamine trifluoroacetic acid salt]"
3,360,"COc1ccc2oc3c(N4CCC[C@H](N)C4)nc(N)nc3c2c1 [Example 107, (S)-4-(3-Amino-piperidin-1-yl)-8-methoxy-benzo[4,5]furo[3,2-d]pyrimidin-2-ylamine trifluoroacetic acid salt]"
4,2.6,"Nc1nc(N2CC[C@@H](N)C2)c2oc3ccccc3c2n1 [Example 108, (R)-4-(3-Amino-pyrrolidin-1-yl)-benzo[4,5]furo[3,2-d]pyrimidin-2-ylamine]"
5,260,"CN[C@@H]1CCN(c2nc(N)nc3c2oc2ncc(Cl)cc23)C1 [Example 109, (R)-3-Chloro-8-(3-methylamino-pyrrolidin-1-yl)-9-oxa-1,5,7-triaza-fluoren-6-ylamine]"
6,1820,"Nc1nc(NCC2CNC2)c2oc3ccc(Cl)cc3c2n1 [Example 110, N^4-Azetidin-3-ylmethyl-8-chloro-benzo[4,5]furo[3,2-d]pyrimidine-2,4-diamine trifluoroacetic acid salt]"
7,330,"Nc1nc(NC2CNC2)c2oc3ccc(Cl)cc3c2n1 [Example 111, N^4-Azetidin-3-yl-8-chloro-benzo[4,5]furo[3,2-d]pyrimidine-2,4-diamine trifluoroacetic acid salt]"
8,41,"NCCNc1nc(N)nc2c1oc1ccc(Cl)cc12 [Example 112, N^4-(2-Amino-ethyl)-8-chloro-benzo[4,5]furo[3,2-d]pyrimidine-2,4-diamine trifluoroacetic acid salt]"
9,4.3,"CN1CCN(c2nc(NCCO)nc3c2oc2ccc(Cl)cc23)CC1 [Example 115, 2-[8-Chloro-4-(4-methyl-piperazin-1-yl)-benzo[4,5]furo[3,2-d]pyrimidin-2-ylamino]-ethanol]"
10,350,"CN1CCN(c2nc(NC3CC3)nc3c2oc2ccc(Cl)cc23)CC1 [Example 119, [8-Chloro-4-(4-methyl-piperazin-1-yl)-benzo[4,5]furo[3,2-d]pyrimidin-2-yl]-cyclopropyl-amine]"
11,220,"C=CCNc1nc(N2CCN(C)CC2)c2oc3ccc(Cl)cc3c2n1 [Example 121, Allyl-[8-chloro-4-(4-methyl-piperazin-1-yl)-benzo[4,5]furo[3,2-d]pyrimidin-2-yl]-amine]"
12,300,"CN1CCN(c2nc(NCCCN)nc3c2oc2ccc(Cl)cc23)CC1 [Example 122, N^1-[8-Chloro-4-(4-methyl-piperazin-1-yl)-benzo[4,5]furo[3,2-d]pyrimidin-2-yl]-propane-1,3-diamine]"
13,97,"CNc1nc(N2CCN(C)CC2)c2oc3ccc(Cl)cc3c2n1 [Example 124, [8-Chloro-4-(4-methyl-piperazin-1-yl)-benzo[4,5]furo[3,2-d]pyrimidin-2-yl]-methyl-amine]"
14,210,"CNC1CCN(c2nc(NCCO)nc3c2oc2ccc(Cl)cc23)C1 (stereo not shown) [Example 126, 2-[8-Chloro-4-(3-methylamino-pyrrolidin-1-yl)-benzo[4,5]furo[3,2-d]pyrimidin-2-ylamino]-ethanol]"
15,19,"Nc1nc(N2CC(N)C2)c2oc3ccc(Cl)cc3c2n1 [Example 129, 4-(3-Amino-azetidin-1-yl)-8-chloro-benzo[4,5]furo[3,2-d]pyrimidin-2-ylamine trifluoroacetic acid salt]"
16,140,"C[C@@H]1CN(c2nc(N)nc3c2oc2ccc(Cl)cc23)[C@@H](C)CN1 [Example 130, (2S,5R)-8-Chloro-4-(2,5-dimethyl-piperazin-1-yl)-benzo[4,5]furo[3,2-d]pyrimidin-2-ylamine trifluoroacetic acid salt]"
17,60,"C[C@H]1CNCCN1c1nc(N)nc2c1oc1ccc(Cl)cc12 [Example 131, (S)-8-Chloro-4-(2-methyl-piperazin-1-yl)-benzo[4,5]furo[3,2-d]pyrimidin-2-ylamine trifluoroacetic acid salt]"
18,120,"C[C@@H]1CNCCN1c1nc(N)nc2c1oc1ccc(Cl)cc12 [Example 132, (R)-8-Chloro-4-(2-methyl-piperazin-1-yl)-benzo[4,5]furo[3,2-d]pyrimidin-2-ylamine trifluoroacetic acid salt]"
19,5.7,"C[C@H]1CN(c2nc(N)nc3c2oc2ccc(Cl)cc23)CCN1 [Example 133, (S)-8-Chloro-4-(5-methyl-piperazin-1-yl)-benzo[4,5]furo[3,2-d]pyrimidin-2-ylamine trifluoroacetic acid salt]"
20,50,"C[C@@H]1CN(c2nc(N)nc3c2oc2ccc(Cl)cc23)CCN1 [Example 134, (R)-8-Chloro-4-(5-methyl-piperazin-1-yl)-benzo[4,5]furo[3,2-d]pyrimidin-2-ylamine trifluoroacetic acid salt]"
21,> 10000,"Nc1nc(N2CC(N)C2)c2oc3cccc(F)c3c2n1 [Example 138, 4-(3-Amino-azetidin-1-yl)-9-fluoro-benzo[4,5]furo[3,2-d]pyrimidin-2-ylamine trifluoroacetic acid salt]"
22,1,"CN[C@@H]1CCN(c2nc(N)nc3c2oc2ccc(C(F)(F)F)cc23)C1 [Example 140, (R)-4-(3-Methylamino-pyrrolidin-1-yl)-8-trifluoromethyl-benzo[4,5]furo[3,2-d]pyrimidin-2-ylamine trifluoroacetic acid salt]"
